One assay relates to MDA-MB-231. Kind of assay: In vitro cell proliferation assay (CellTiter-Glo), MDA-MB-231. The format is cell-based. The following applies: growth inhibition, semiquantitative, read-out: GI50 MDA-MB-231. As for the experimental part:
(§1) The in vitro potency of the compounds was measured by the cell proliferation assay CellTiter-Glo® Luminescent Cell Viability Assay, commercially available from Promega Corp., Madison, Wis. This homogeneous assay method is based on the recombinant expression of Coleoptera luciferase (U.S. Pat. No. 5,583,024; U.S. Pat. No. 5,674,713; U.S. Pat. No. 5,700,670) and determines the number of viable cells in culture based on quantitation of the ATP present, an indicator of metabolically active cells (Crouch et al (1993) J. Immunol. Meth. 160:81-88; U.S. Pat. No. 6,602,677). The CellTiterGlo® Assay was conducted […] it amenable to automated high throughput screening (HTS) (Cree et al (1995) AntiCancer Drugs 6:398-404).
(§2) The homogeneous assay procedure involves adding the single reagent (CellTiter-Glo® Reagent) directly to cells cultured in serum-supplemented medium. Cell washing, removal of medium and multiple pipetting steps are not required. The system detects as few as 15 cells/well in a 96-well format in 10 minutes after adding reagent and mixing.
(§3) The homogeneous “add-mix-measure” format results in cell lysis and generation of a luminescent signal proportional to the amount of ATP present. The amount of ATP is directly proportional to the number of cells present in culture. The CellTiter-Glo® Assay generates a “glow-type” luminescent signal, produced by the luciferase reaction, which has a half-life generally greater than five hours, depending on cell type and medium used. Viable cells are reflected in relative luminescence units (RLU). The substrate, Beetle Luciferin, is oxidatively decarboxylated by recombinant firefly luciferase with concomitant conversion of ATP to AMP and generation of photons. The extended half-life eliminates the need to use reagent injectors and provides flexibility for continuous or batch mode processing of multiple plates. This cell proliferation assay can be used with various multiwell formats, e.g. 96 or 384 well format. Data can be recorded by luminometer or CCD camera imaging device. The luminescence output is presented as relative light units (RLU), measured over time.
For orientation: Cellular ATP, detected with luciferase, serves as a proxy for viable cell number.

The next assay deals with Haspin kinase (Homo sapiens (Human), UniProt Q8TF76). Kind of assay: Haspin kinase assay (ADP-Glo). The format is biochemical. The following applies: ATP 150 μM. An excerpt:
The kinase assay relies on ADP-Glo^KM biochemical kinase assay (Promega). This is a luminescent kinase assay that measures ADP formed from a kinase reaction. Then ADP is converted into ATP, which is transformed into a light signal by Ultra-Glo™ Luciferase. The luminescent signal positively correlates with kinase activity. The assay measures the intrinsic ATPase activity (in the absence of peptidic substrate as phosphate acceptor).
The enzyme was purchase from Invitrogen (PV5708) as the kinase domain of GST tagged recombinant human proteins.
Assay conditions were as indicated by the kit manufacturers with the following adaptations: • Assay buffer: 15 mM HEPES pH 7.4, 20 mM NaCl, 1 mM EGTA, 0.02% Tween 20, 10 mM MgCl2, 0.1 mg/ml BGG • Assay volume: 20 μl • Incubation time and temperature: 60 min at 30° C. • Haspin concentration: 20 nM • ATP concentration: 150 μM • Tested compound: Serial 1:3 dilutions • Final DMSO concentration in the assay: 1%
Assays were performed in 384-well plates. The final read out was generated using an EnVision plate reader (Perkin-Elmer). Luminescent relative units are normalized against the control activity included for each compound (i.e., 100% Haspin activity, without compound) and the percentage of inhibition is calculated.

In a further assay the target is CDK8/Cyclin C (Homo sapiens (Human), UniProt P49336). Put plainly: CDK8/Cyclin C binding assay (LanthaScreen Eu-Kinase Binding Assay). The following applies: for IC50: binding assay. Here is the method:
The enzyme has been purchase from Invitrogen (PV4402) as a dimer of full-length His-tagged recombinant human proteins.
(§4) Assays were performed in 384-well plates. The final read out was generated using an EnVision plate reader (Perkin-Elmer).
(TR-FRET usually uses a lanthanide donor and a delayed reading to cut background.)

A further assay concerns SW620. Put plainly: In vitro cell proliferation assay (CellTiter-Glo), SW620. The format is cell-based, human. To be noted: growth inhibition, semiquantitative, read-out: GI50 SW620. As for the experimental part:
as §1, §2, §3

The next assay concerns MV4:11. Kind of assay: In vitro cell proliferation assay (CellTiter-Glo), MV4:11. Type of assay: cell-based. The following applies: growth inhibition, semiquantitative, read-out: GI50 MV4:11. As for the experimental part: as §1, §2, §3
In a further assay the target is CDK19/Cyclin C (Homo sapiens (Human), UniProt Q9BWU1). Put plainly: CDK19/Cyclin C binding assay (LanthaScreen Eu-Kinase Binding Assay). To be noted: read-out: CDK19-CYCC IC50. As for the experimental part:
The binding assay relies on the LanthaScreen™ Eu-Kinase Binding Assay (Invitrogen).
Assay conditions were as indicated by the kit manufacturers with the following adaptations: • Assay buffer: 50 mM HEPES, pH 7.5, 1 mM EGTA, 0.01% Brij-35, 10 mM MgCl2 • Assay volume: 20 μl • Incubation time and temperature: 60 min at 25° C. • Cdk19-Cyclin C concentration: 2 nM • Tracer concentration: 20 nM • (Eu)-labelled anti-GST antibody concentration: 2 nM • Tested compound: Serial 1:3 dilutions • Final DMSO concentration in the assay: 1%
as §4

Another assay concerns Molm13. Put plainly: In vitro cell proliferation assay (CellTiter-Glo), Molm13. The format is cell-based. The following applies: growth inhibition, semiquantitative, read-out: GI50 Molm13. Here is the method: as §1, §2, §3

Read-outs that look alike come from different tables or passages of the source.

CDK19/Cyclin C, sequence (Q9BWU1 whole entry): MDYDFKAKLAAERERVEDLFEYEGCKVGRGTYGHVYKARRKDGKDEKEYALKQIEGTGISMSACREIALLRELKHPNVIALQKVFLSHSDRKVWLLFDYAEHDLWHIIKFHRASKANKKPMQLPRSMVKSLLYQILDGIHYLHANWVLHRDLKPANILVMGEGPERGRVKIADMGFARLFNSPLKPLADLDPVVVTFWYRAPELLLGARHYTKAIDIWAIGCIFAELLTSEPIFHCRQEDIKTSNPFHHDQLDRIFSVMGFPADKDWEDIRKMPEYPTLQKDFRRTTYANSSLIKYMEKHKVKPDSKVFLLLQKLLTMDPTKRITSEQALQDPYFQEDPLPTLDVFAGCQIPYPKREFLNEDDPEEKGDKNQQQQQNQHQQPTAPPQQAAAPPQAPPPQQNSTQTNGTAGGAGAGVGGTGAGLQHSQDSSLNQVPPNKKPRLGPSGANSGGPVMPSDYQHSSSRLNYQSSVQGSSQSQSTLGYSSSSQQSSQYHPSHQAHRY
CDK19/Cyclin C, sequence (P24863 whole entry partner): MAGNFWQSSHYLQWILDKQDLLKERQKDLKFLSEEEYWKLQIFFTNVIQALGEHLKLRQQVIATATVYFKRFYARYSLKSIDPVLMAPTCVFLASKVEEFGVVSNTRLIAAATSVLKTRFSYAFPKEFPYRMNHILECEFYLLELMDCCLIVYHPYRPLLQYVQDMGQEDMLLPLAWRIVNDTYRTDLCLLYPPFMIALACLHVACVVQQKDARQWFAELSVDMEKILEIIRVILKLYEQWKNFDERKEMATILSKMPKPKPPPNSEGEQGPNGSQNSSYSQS
CDK8/Cyclin C, sequence (P49336 whole entry): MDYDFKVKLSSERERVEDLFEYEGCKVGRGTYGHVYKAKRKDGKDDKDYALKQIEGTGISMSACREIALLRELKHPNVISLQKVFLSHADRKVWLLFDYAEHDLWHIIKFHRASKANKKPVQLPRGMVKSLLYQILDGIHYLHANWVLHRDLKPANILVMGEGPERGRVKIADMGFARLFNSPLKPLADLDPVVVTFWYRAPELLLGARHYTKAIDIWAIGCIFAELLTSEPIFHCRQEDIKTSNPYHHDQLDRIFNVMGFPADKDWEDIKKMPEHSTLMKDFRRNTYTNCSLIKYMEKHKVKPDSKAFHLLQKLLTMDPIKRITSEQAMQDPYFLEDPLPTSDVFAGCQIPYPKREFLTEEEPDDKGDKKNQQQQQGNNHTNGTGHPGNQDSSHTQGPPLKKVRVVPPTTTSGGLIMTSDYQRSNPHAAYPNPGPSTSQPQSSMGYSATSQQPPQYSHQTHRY
CDK8/Cyclin C, sequence (P24863 whole entry partner): as the sequence (P24863 whole entry partner) above
Haspin kinase, sequence (Q8TF76 484-798): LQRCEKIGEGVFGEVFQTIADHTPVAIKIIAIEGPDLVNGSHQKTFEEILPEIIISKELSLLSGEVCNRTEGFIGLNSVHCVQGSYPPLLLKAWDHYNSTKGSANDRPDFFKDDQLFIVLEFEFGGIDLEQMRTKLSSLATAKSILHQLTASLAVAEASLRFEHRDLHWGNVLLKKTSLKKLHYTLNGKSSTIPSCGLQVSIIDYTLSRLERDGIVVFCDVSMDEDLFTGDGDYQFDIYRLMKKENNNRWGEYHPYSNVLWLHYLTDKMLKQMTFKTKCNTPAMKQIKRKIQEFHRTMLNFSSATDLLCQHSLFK

What is called GI50 is the concentration giving 50% growth inhibition. Broadly, the IC50 is the midpoint of a concentration-inhibition curve. Take `CCn1c(C(N)=O)cc2c1-c1ccncc1O[C@H]2C1CCCCC1` (single isomer, unassigned) [Example 89]: the GI50 with MDA-MB-231 was 10000 to 100000 nM; in the assay with SW620, 10000 to 100000 nM; with MV4:11, under 1000 nM; in the assay on Molm13, under 1000 nM. Besides, the IC50 came out at 95.2 nM at Haspin kinase, 0.407 nM on CDK8/Cyclin C and 1.41 nM at CDK19/Cyclin C.
As for `CC1(C)Oc2cnccc2-c2[nH]c(C(N)=O)cc21` [Example 1], the GI50 in the assay on MDA-MB-231 (Homo sapiens, MDA-MB-231) lay in the range of 10000 to 100000 nM; with MV4:11 (Homo sapiens, MV4-11), 1000 to 10000 nM. Besides, the IC50 against Haspin kinase is 38.1 nM; on CDK8/Cyclin C, 2.59 nM; on CDK19/Cyclin C, 11.9 nM.
For the compound `CNC(=O)c1cc2c([nH]1)-c1ccncc1OC2(C)C` [Example 3], the IC50 against Haspin kinase was 180 nM; at CDK8/Cyclin C it was 92.2 nM; on CDK19/Cyclin C it was 322 nM.
With `Cl.NC(=O)c1cc2c([nH]1)-c1ccncc1OC21CCNCC1` [Example 12], the IC50 against Haspin kinase came to 53.3 nM; at CDK8/Cyclin C, 412 nM; on CDK19/Cyclin C it was 550 nM.
As for `NC(=O)c1cc2c([nH]1)-c1ccncc1OC21CCCCC1` [Example 13], the results for the IC50 at Haspin kinase, on CDK8/Cyclin C and at CDK19/Cyclin C were 53.6 nM, 4.18 nM and 8.22 nM, respectively.
Turning to `O=C(O)c1cc2c([nH]1)-c1ccncc1OC21CCCCC1` [Example 14], the results for the IC50 against Haspin kinase, on CDK8/Cyclin C and on CDK19/Cyclin C were 1000 nM, 23.9 nM and 3.01 nM, respectively.
For the compound `NC(=O)c1cc2c([nH]1)-c1ccncc1OC21CCOCC1` [Example 20], the figures for the IC50 on Haspin kinase, at CDK8/Cyclin C and on CDK19/Cyclin C were 206 nM, 54.7 nM and 211 nM, respectively.
For `Cn1c(C(=O)O)cc2c1-c1ccncc1OC2(C)C` [Example 23] the same measures were 648 nM, 61.1 nM and 233 nM.
For `CC1(C)Oc2cnccc2-c2[nH]c(C(N)=O)c(Cl)c21` [Example 28] the same measures were 26.6 nM, 9.32 nM and 16.6 nM.
With `CC1(C)Oc2cnccc2-c2[nH]c(C(=O)O)c(Br)c21` [Example 29], the IC50 at Haspin kinase amounted to 89.3 nM; at CDK8/Cyclin C, 52.5 nM; at CDK19/Cyclin C, 205 nM.
With `CC1(C)Oc2cnccc2-c2[nH]c(C(=O)O)c(-c3ccc(S(N)(=O)=O)cc3)c21` [Example 30], the IC50 came out at 2740 nM at Haspin kinase, 8.94 nM on CDK8/Cyclin C and 20.7 nM at CDK19/Cyclin C. In addition, the CDK8 selectivity result at CDK8/Cyclin C is reported as “high CDK8 selectivity”.
As to `CC1(C)Oc2cnccc2-c2[nH]c(C(N)=O)c(-c3ccccc3)c21` [Example 31], the values for the IC50 against Haspin kinase, at CDK8/Cyclin C and at CDK19/Cyclin C were 73.2 nM, 29.7 nM and 107 nM, respectively.
In the same order, the values of `CC1(C)Oc2cnccc2-c2[nH]c(C(N)=O)c(-c3ccc(S(N)(=O)=O)cc3)c21` [Example 32] are 235 nM, 26.2 nM and 81.3 nM.
For `C=Cc1c(C(N)=O)[nH]c2c1C(C)(C)Oc1cnccc1-2` [Example 33], the results for the IC50 against Haspin kinase, at CDK8/Cyclin C and at CDK19/Cyclin C were 90.6 nM, 12.3 nM and 29.5 nM, respectively.
Regarding `CC1(C)Oc2cncc(Cl)c2-c2[nH]c(C(N)=O)cc21` [Example 34], the IC50 on Haspin kinase amounted to 31.8 nM; on CDK8/Cyclin C, 2.1 nM; at CDK19/Cyclin C, 1.41 nM. For the same compound, the GI50 in the assay with MV4:11 (Homo sapiens, MV4-11) is under 1000 nM.
Consider `CC1(C)Oc2cncc(Cl)c2-c2[nH]c(C(=O)O)cc21` [Example 35], for which the IC50 was 151 nM at Haspin kinase, 13.3 nM at CDK8/Cyclin C and 31.4 nM at CDK19/Cyclin C.
In the same order, the values of `Cn1c(C(N)=O)cc2c1-c1c(Cl)cncc1OC2(C)C` [Example 41] are 1310 nM, 55.5 nM and 158 nM.
`COc1ccc(-c2c(C(N)=O)[nH]c3c2C(C)(C)Oc2cnccc2-3)cc1` [Example 51]: the IC50 at Haspin kinase was found to be 321 nM; on CDK8/Cyclin C, 31.9 nM; at CDK19/Cyclin C it was 171 nM.
For the compound `CC1(C)Oc2cnccc2-c2c1cc(C(N)=O)n2CC(F)(F)F` [Example 53], the results for the IC50 on Haspin kinase, at CDK8/Cyclin C and at CDK19/Cyclin C were 186 nM, 21.6 nM and 19.4 nM, respectively.
Consider `CC(C)C1(C)Oc2cnccc2-c2[nH]c(C(N)=O)cc21` (stereo not shown) [Example 54], for which the IC50 at Haspin kinase was 52.9 nM; at CDK8/Cyclin C, 31.1 nM; at CDK19/Cyclin C, 97.1 nM.
In the same order, the values of `CC1(C)Oc2cnccc2-c2[nH]c(C(N)=O)c(C3=CCOCC3)c21` [Example 55] are 146 nM, 39.3 nM and 70.5 nM.
`CC1(C)Oc2cnccc2-c2[nH]c(C(=O)O)c(C3=CCOCC3)c21` [Example 56]: the IC50 worked out at 683 nM on Haspin kinase, 78.5 nM at CDK8/Cyclin C and 86.6 nM at CDK19/Cyclin C.
With `NC(=O)c1cc2c([nH]1)-c1ccncc1OC2C1CCCCC1` (stereo not shown) [Example 57], the IC50 on CDK8/Cyclin C turned out to be 1.41 nM; on CDK19/Cyclin C it was 47.3 nM. In the assay with SW620 (Homo sapiens, SW-620), the GI50 was under 1000 nM.
Consider `CC1Oc2cnccc2-c2[nH]c(C(N)=O)cc21` (stereo not shown) [Example 58], for which the IC50 was 247 nM against Haspin kinase, 14.4 nM at CDK8/Cyclin C and 25.5 nM on CDK19/Cyclin C.
Take `COc1ccccc1-c1c(C(N)=O)[nH]c2c1C(C)(C)Oc1cnccc1-2` [Example 63]: the results for the IC50 against Haspin kinase, on CDK8/Cyclin C and on CDK19/Cyclin C were 3960 nM, 55.4 nM and 229 nM, respectively.
As for `CC1(C)Oc2cnccc2-c2[nH]c(C(N)=O)c(-c3ccc4[nH]ncc4c3)c21` [Example 65], the IC50 stood at 933 nM against Haspin kinase, 10000 nM at CDK8/Cyclin C and 10000 nM on CDK19/Cyclin C.
Regarding `CCn1c(C(N)=O)cc2c1-c1ccncc1OC21CCC1` [Example 66], the IC50 at CDK8/Cyclin C is 0.191 nM; on CDK19/Cyclin C it was 1.41 nM.
For `Cn1c(C(N)=O)cc2c1-c1ccncc1OC21CCC1` [Example 67], the IC50 came out at 27.6 nM on Haspin kinase, 0.466 nM at CDK8/Cyclin C and 1.41 nM on CDK19/Cyclin C.
In the case of `CCn1c(C(N)=O)c(-c2ccccc2C(F)(F)F)c2c1-c1ccncc1OC2(C)C` [Example 75], the IC50 came out at 233 nM at Haspin kinase, 14.4 nM at CDK8/Cyclin C and 16.7 nM at CDK19/Cyclin C.
Regarding `CCn1c(C(N)=O)c(-c2cccc(OC)c2)c2c1-c1ccncc1OC2(C)C` [Example 88], the GI50 with MDA-MB-231 (Homo sapiens, MDA-MB-231) is 10000 to 100000 nM; with SW620 (Homo sapiens, SW-620), 10000 to 100000 nM; in the assay with MV4:11 (Homo sapiens, MV4-11) it was under 1000 nM; in the assay with Molm13 (Homo sapiens, MOLM-13), 1000 to 10000 nM. Besides, the IC50 was found to be 106 nM against Haspin kinase and 13.9 nM at CDK8/Cyclin C.
